This note sets out measurements from patent US20230053607A1, “PESTICIDALLY ACTIVE FUSED BICYCLIC HETEROAROMATIC AMINO COMPOUNDS” (SYNGENTA CROP PROTECTION AG, priority 2019, published 2023).

The subject of one data set is Diabrotica balteata. Put plainly: Diabrotica balteata (corn root worm), maize sprouts sprayed, L2 larvae. The format is in vivo. Particulars: 96 h, application rate 200 ppm, 4 days after infestation, read-out: control in at least one of the categories (mortality or growth inhibition). How it is done:
Maize sprouts placed onto an agar layer in 24-well microtiter plates were treated with aqueous test solutions prepared from 10′000 ppm DMSO stock solutions by spraying. After drying, the plates were infested with L2 larvae (6 to 10 per well). The samples were assessed for mortality and growth inhibition in comparison to untreated samples 4 days after infestation. The following compounds gave an effect of at least 80% control in at least one of the categories (mortality or growth inhibition) at an application rate of 200 ppm: P1, P2, P3, P6, P7, P8, P10.

Data set [1] concerns Plutella xylostella. In words: Plutella xylostella (diamond back moth), 24-well artificial diet, eggs. The format is in vivo. As to conditions: 192 h, application rate 200 ppm, 8 days after infestation, 24-well plates, read-out: control in at least one of the categories (mortality or growth inhibition). How it is done: 24-well microtiter plates with artificial diet were treated with aqueous test solutions prepared from 10′000 ppm DMSO stock solutions by pipetting. After drying, Plutella eggs were pipetted through a plastic stencil onto a gel blotting paper and the plate was closed with it. The samples were assessed for mortality and growth inhibition in comparison to untreated samples 8 days after infestation. The following compounds gave an effect of at least 80% control in at least one of the categories (mortality or growth inhibition) at an application rate of 200 ppm: P1, P2, P3, P7, P10.

The subject of another data set is Spodoptera littoralis. Put plainly: Spodoptera littoralis (Egyptian cotton leaf worm), cotton leaf discs sprayed, L1 larvae. The format is in vivo. As to conditions: foliar, 72 h, application rate 200 ppm, 3 days after infestation, read-out: control in at least one of the categories (mortality, anti-feedant effect or growth inhibition). How it is done: Cotton leaf discs were placed onto agar in 24-well microtiter plates and sprayed with aqueous test solutions prepared from 10′000 ppm DMSO stock solutions. After drying the leaf discs were infested with five L1 larvae. The samples were assessed for mortality, anti-feeding effect, and growth inhibition in comparison to untreated samples 3 days after infestation. Control of Spodoptera littoralis by a test sample is given when at least one of the categories mortality, anti-feedant effect, and growth inhibition is higher than the untreated sample.

The subject of another data set is Chilo suppressalis. Put plainly: Chilo suppressalis (striped rice stemborer), artificial diet, L2 larvae. The format is in vivo. As to conditions: 144 h, application rate 200 ppm, 6 days after infestation, read-out: control in at least one of the categories (mortality, anti-feedant effect or growth inhibition). How it is done: 24-well microtiter plates with artificial diet were treated with aqueous test solutions prepared from 10′000 ppm DMSO stock solutions by pipetting. After drying, the plates were infested with L2 larvae (6-8 per well). The samples were assessed for mortality, anti-feeding effect, and growth inhibition in comparison to untreated samples 6 days after infestation. Control of Chilo suppressalis by a test sample is given when at least one of the categories mortality, anti-feedant effect, and growth inhibition is higher than the untreated sample.

The subject of data set [2] is Plutella xylostella. In words: Plutella xylostella (diamondback moth), 96-well artificial diet, eggs. Particulars: 216 h, application rate 500 ppm, 9 days after infestation, 96-well plates, read-out: control (mortality). The data set is classed as in vivo. How it is done: 96-well microtiter plates containing artificial diet were treated with aqueous test solutions, prepared from 10′000 ppm DMSO stock solutions, by a liquid handling robot. After drying, eggs (˜30 per well) were infested onto a netted lid which was suspended above the diet. The eggs hatch and L1 larvae move down to the diet. The samples were assessed for mortality 9 days after infestation.

For a further data set, the system named is Myzus persicae. Put plainly: Myzus persicae (green peach aphid): feeding/contact activity, sunflower leaf discs. The data set is classed as in vivo. As to conditions: foliar, 144 h, application rate 200 ppm, 6 days after infestation, mixed ages. How it is done: Sunflower leaf discs were placed onto agar in a 24-well microtiter plate and sprayed with aqueous test solutions prepared from 10′000 ppm DMSO stock solutions. After drying, the leaf discs were infested with an aphid population of mixed ages. The samples were assessed for mortality 6 days after infestation.

For the compound `CC(Nc1snc2c(C(F)(F)F)cc(C(F)(F)F)cc12)c1ncnn1-c1ncccn1` (centres unmarked) [P1, N-[1-(2-pyrimidin-2-yl-1,2,4-triazol-3-yl)ethyl]-5,7-bis(trifluoromethyl)-2,1-benzothiazol-3-amine], the percent control (mortality or growth inhibition) at 200 ppm in the data set on Diabrotica balteata and in the data set with Plutella xylostella [1] was not below 80% each time. Further, in the data set on Spodoptera littoralis, the percent control (mortality, anti-feedant effect or growth inhibition) at 200 ppm was not below 80%.
For the compound `C[C@H](Nc1snc2c(C(F)(F)F)cc(C(F)(F)F)cc12)c1ncnn1-c1ccc(C#N)cn1` [P2, 6-[5-[(1S)-1-[[5,7-bis(trifluoromethyl)-2,1-benzothiazol-3-yl]amino]ethyl]-1,2,4-triazol-1-yl]pyridine-3-carbonitrile], the percent control (mortality or growth inhibition) at 200 ppm with Diabrotica balteata and in the data set on Plutella xylostella [1] was not below 80% throughout. Also, the percent control (mortality, anti-feedant effect or growth inhibition) at 200 ppm in the data set with Spodoptera littoralis is not below 80%.
With `CC(c1ncnn1-c1ccc(C#N)cn1)N(C)c1c(C#N)sc2c(C(F)(F)F)cc(C(F)(F)F)cc12` (centres unmarked) [P3, 6-[5-[1-[[2-cyano-5,7-bis(trifluoromethyl)benzothiophen-3-yl]-methyl-amino]ethyl]-1,2,4-triazol-1-yl]pyridine-3-carbonitrile], the percent control (mortality or growth inhibition) at 200 ppm in the data set on Diabrotica balteata and in the data set with Plutella xylostella [1] was not below 80% in each case. Further, the percent control (mortality, anti-feedant effect or growth inhibition) at 200 ppm in the data set on Chilo suppressalis was not below 80%.
Compound `CC(Nc1c(C#N)sc2c(C(F)(F)F)cc(C(F)(F)F)cc12)c1ncnn1-c1ccc(C#N)cn1` (centres unmarked) [P4, 6-[5-[1-[[2-cyano-5,7-bis(trifluoromethyl)benzothiophen-3-yl]amino]ethyl]-1,2,4-triazol-1-yl]pyridine-3-carbonitrile] had a melting point of 192 to 194 °C.
The same measure, in the same setting: the same measure for `COC(=O)c1sc2c(C(F)(F)F)cc(C(F)(F)F)cc2c1NC(C)c1ncnn1-c1ccc(C#N)cn1` (centres unmarked) [P5, methyl 3-[1-[2-(5-cyano-2-pyridyl)-1,2,4-triazol-3-yl]ethylamino]-5,7-bis(trifluoromethyl)benzothiophene-2-carboxylate]: 195 to 197 °C.
For the compound `CC(Nc1nn(C)c2c(C(F)(F)F)cc(C(F)(F)F)cc12)c1ncnn1-c1ncccn1` (centres unmarked) [P6, 1-methyl-N-[1-(2-pyrimidin-2-yl-1,2,4-triazol-3-yl)ethyl]-5,7-bis(trifluoromethyl)indazol-3-amine], the percent control (mortality or growth inhibition) at 200 ppm in the data set on Diabrotica balteata is not below 80%. The percent control (mortality, anti-feedant effect or growth inhibition) at 200 ppm in the data set with Chilo suppressalis and with Spodoptera littoralis was not below 80% throughout.
On to `CC(c1nccnc1-c1ncccn1)N(CC1CC1)c1nn(C)c2c(C(F)(F)F)cc(C(F)(F)F)cc12` (centres unmarked) [P7, N-(cyclopropylmethyl)-1-methyl-N-[1-(3-pyrimidin-2-ylpyrazin-2-yl)ethyl]-5,7-bis(trifluoromethyl)indazol-3-amine], for which the percent control (mortality or growth inhibition) at 200 ppm with Diabrotica balteata and in the data set with Plutella xylostella [1] was not below 80% each time. For the same compound, the percent control (mortality, anti-feedant effect or growth inhibition) at 200 ppm in the data set with Chilo suppressalis and in the data set with Spodoptera littoralis was not below 80% throughout.
On to `CC(c1nccnc1-c1ncccn1)N(CC1CC1)c1nn(C)c2c(Cl)cc(C(F)(F)F)cc12` (centres unmarked) [P8, 7-chloro-N-(cyclopropylmethyl)-1-methyl-N-[1-(3-pyrimidin-2-ylpyrazin-2-yl)ethyl]-5-(trifluoromethyl)indazol-3-amine], for which the percent control (mortality or growth inhibition) at 200 ppm in the data set on Diabrotica balteata is not below 80%. Besides, in the data set on Spodoptera littoralis, the percent control (mortality, anti-feedant effect or growth inhibition) at 200 ppm was not below 80%. Moreover, the mortality at 500 ppm in the data set with Plutella xylostella [2] is not below 80%.
For the compound `CC(Nc1noc2c(Cl)cc(C(F)(F)F)cc12)c1nc(Br)nn1-c1ncccn1` (centres unmarked) [P9, N-[1-(5-bromo-2-pyrimidin-2-yl-1,2,4-triazol-3-yl)ethyl]-7-chloro-5-(trifluoromethyl)-1,2-benzoxazol-3-amine], the melting point is 160 to 163 °C.
For `CC(Nc1nn(C)c2c(C(F)(F)F)cc(C(F)(F)F)cc12)c1nc(Br)nn1-c1ncccn1` (centres unmarked) [P10, N-[1-(5-bromo-2-pyrimidin-2-yl-1,2,4-triazol-3-yl)ethyl]-1-methyl-5,7-bis(trifluoromethyl)indazol-3-amine], the percent control (mortality or growth inhibition) at 200 ppm in the data set with Diabrotica balteata and in the data set with Plutella xylostella [1] was not below 80% each time. Moreover, the percent control (mortality, anti-feedant effect or growth inhibition) at 200 ppm in the data set on Chilo suppressalis was not below 80%. Besides, in the data set with Plutella xylostella [2], the mortality at 500 ppm is not below 80%.
The compound `CC(Nc1nn(C)c2c(Cl)cc(C(F)(F)F)cc12)c1nc(Br)nn1-c1ncccn1` (centres unmarked) [P11, N-[1-(5-bromo-2-pyrimidin-2-yl-1,2,4-triazol-3-yl)ethyl]-7-chloro-1-methyl-5-(trifluoromethyl)indazol-3-amine] had a melting point of 262 to 264 °C.
`CC(Nc1noc2c(F)cc(F)cc12)c1nccnc1-n1ccnn1` (centres unmarked) [P12, 5,7-difluoro-N-[1-[3-(triazol-1-yl)pyrazin-2-yl]ethyl]-1,2-benzoxazol-3-amine] yielded a mortality at 200 ppm in the data set on Myzus persicae not below 80%.
In turn, `CC(Nc1noc2c(F)cc(F)cc12)c1nccnc1-n1nccn1` (centres unmarked) [P13, 5,7-difluoro-N-[1-[3-(triazol-2-yl)pyrazin-2-yl]ethyl]-1,2-benzoxazol-3-amine] showed a melting point of 199 to 201 °C.
The same measure, in the same setting: the result for `CC(Nc1noc2ccc(Br)cc12)c1ncnn1-c1ccc(C#N)cn1` (centres unmarked) [P16, 6-[5-[1-[(5-bromo-1,2-benzoxazol-3-yl)amino]ethyl]-1,2,4-triazol-1-yl]pyridine-3-carbonitrile] reads 175 to 177 °C; that for `CC(Nc1noc2ccc(Br)cc12)c1ncnn1-c1ncccn1` (centres unmarked) [P17, 5-bromo-N-[1-(2-pyrimidin-2-yl-1,2,4-triazol-3-yl)ethyl]-1,2-benzoxazol-3-amine], 233 to 235 °C.
In the case of `COC(=O)c1cc(Cl)cc2c(N[C@@H](C)c3ncnn3-c3ccc(C#N)cn3)csc12` [P18, methyl 5-chloro-3-[[(1S)-1-[2-(5-cyano-2-pyridyl)-1,2,4-triazol-3-yl]ethyl]amino]benzothiophene-7-carboxylate], the mortality at 500 ppm with Plutella xylostella [2] is not below 80%.

Broadly, the melting point is the temperature, or range, at which the solid turns liquid. The term mortality denotes the share of the test organisms that died.
